Test [1] has as its target T1, PARP1 (His6-PARP1, full length) (Homo sapiens, UniProt P09874).
T1 construct: His6-PARP1 (full length) can be substituted for His6-TNKS 1
The test can be described thus: TR-FRET Binding Assay (Example 71), PARP1. To be noted: TR-FRET assay of Example 71 with His6-PARP1. On the procedure: (§1) μHTS-TNKS-IWR2 TR-FRET Binding Assay (10 μL/well in BD1536-well plate, a single point)
Tankyrase 1 (TNKS1): 184.3 μM=5.2 mg/mL His6-TNKS1, MW=28.2 KDa (construct: 1088-1327, 1266M) in 20 mM Tris pH 8, 150 mM NaCl, 10% glycerol, and 0.5 mM TCEP. Alternatively, His6-tankyrase 2 (construct: 934-1166) (His6-TNKS2) or His6-PARP1 (full length) can be substituted for His6-TNKS 1.
(§2) Assay buffer 1a (AB1a) for TNKS dilution: 50 mM Tris, pH 7.4, 100 mM sodium chloride solution, 1 mM magnesium chloride solution, 1 mM DL-dithiothreitol solution, 0.2 mg/mL bovine serum albumin solution, 0.025% NP-40. Assay buffer 1b (AB 1b) for Biotin-IWR2 dilution: 50 mM Tris, pH 7.4, 100 mM sodium chloride solution, 1 mM magnesium chloride solution, 1 mM DL-dithiothreitol solution, 0.2 mg/mL bovine serum albumin solution, 0.05% NP-40 Assay buffer 1c (AB 1c) for compound dilution: 50 mM Tris, pH 7.4, 100 mM sodium chloride solution, 1 mM magnesium chloride solution, 1 mM DL-dithiothreitol solution, 0.2 mg/mL bovine serum albumin solution Assay buffer 2 (AB2) for Eu/APC: 50 mM Tris, pH 7.4, 100 mM sodium chloride solution, 1 mM magnesium chloride solution, 0.2 mg/mL bovine serum albumin solution
Prepare Biotinylated IWR2 stock solution (3.33× stock) for TOTL and compound wells: 200 nM Biotin-IWR2 in 5% DMSO/AB1b buffer
Prepare BLANK well stock solution: 5% DMSO/AB1b buffer Prepare POSITIVE CONTROL well stock solution (3.33× stock): 200 nM XAV939 in 200 nM Biotin-IWR2/5% DMSO/AB1b buffer Prepare TNKS1 stock solution (5× stock): 300 nM TNKS in AB1a buffer. (Alternatively, use TNKS2 or PARP1 stock solutions.) Prepare Eu/APC stock solution (5× stock): 3.5 nM Eu-SA/50 nM APC-His6Ab in AB2 buffer.
(§3) Add 25 μL/well 1.5% DMSO/AB1c buffer in each compound well to the compound concentration at 74 μM in 8.8% DMSO/AB1c buffer or in the 2 μL DMSO CONTROL wells (BLANK, TOTAL and POSITIVE wells) in the compound plate. Transfer 3 μL/well of above solution (solution 1,2,3) to an empty assay plate (BD1536-well plate) as follows: TOTAL and cpd wells: Solution 1 (Biotin-IWR2): BLANK wells: Solution 2 (No Biotin-IWR2): POSITIVE CONTROL wells: Solution 3 (Biotin-IWR2XAV939) Transfer 3 μL/well of the above diluted compound solutions or compound dilution buffer to the above assay plate. Add 2 μL/well of 300 nM TNKS stock solution (4) to every well in the above assay plate. Centrifuge the assay plate at 2100 rpm for 2 min. Incubate the assay plate at 26° C. for 30 minutes. Add 2 μL/well 3.5 nMEu/50 nM APC solution (5) to every well in the above assay plate. Centrifuge the assay plate at 2100 rpm for 2 min. Incubate the assay plate at 26° C. for 60 min. Read the assay plate immediately at excitation wavelength of 330 nm and emission wavelength of 615 and 665 nM in time resolved fluorescence mode.
. Representative compound data for the PARP1 assay is in TABLE 2 (below) Values are in μM.

For a further test, the target named is T2, Tankyrase 1 (TNKS1) (Homo sapiens, UniProt O95271).
T2 construct: His6-TNKS1, MW=28.2 KDa (construct: 1088-1327, 1266M)
T2 sequence (O95271 1088-1327): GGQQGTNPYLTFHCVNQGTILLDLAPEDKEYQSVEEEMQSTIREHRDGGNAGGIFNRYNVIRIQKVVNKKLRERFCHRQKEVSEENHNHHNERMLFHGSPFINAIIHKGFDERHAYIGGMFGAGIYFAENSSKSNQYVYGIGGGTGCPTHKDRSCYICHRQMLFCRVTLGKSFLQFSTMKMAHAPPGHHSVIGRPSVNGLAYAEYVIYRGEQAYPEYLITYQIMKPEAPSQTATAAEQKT
The test can be described thus: μHTS-TNKS-IWR2 TR-FRET Binding Assay (Example 71), TNKS1. As to the method:
as §1, §2
as §3, with “Transfer” for “Add 25 μL/well 1.5% DMSO/AB1c buffer in each compound well to the compound concentration at 74 μM in 8.8% DMSO/AB1c buffer or in the 2 μL DMSO CONTROL wells (BLANK, TOTAL and POSITIVE wells) in the compound plate. Transfer”, “min.” for “min. Read the assay plate immediately at excitation wavelength of 330 nm and emission wavelength of 615 and 665 nM in time resolved fluorescence mode.”
On the technique in general: Time-resolved FRET reads energy transfer from a long-lived donor to a nearby acceptor.

A further test addresses T3, tankyrase 2 (His6-TNKS2) (Homo sapiens, UniProt Q9H2K2).
T3 construct: His6-tankyrase 2 (construct: 934-1166) (His6-TNKS2)
The test is described as follows: μHTS-TNKS-IWR2 TR-FRET Binding Assay (Example 71), TNKS2. As to conditions: footnote 1: Tankyrase 1 and 2 inhibition assay in Example 71 (TR-FRET). As to the method: as §1
Biotin-4-((1S,2R,6S,7R)-3,5-Dioxo-4-aza-tricyclo[5.2.1.0*2,6*]dec-8-en-4-yl)-N-(4-methyl-quinolin-8-yl)-benzamide (Biotin-IWR2): 10 mM Biotin-IWR2 stock in DMSO, stored at −20° C. Positive control: 10 mM 2-(4-Trifluoromethyl-phenyl)-3,5,7,8-tetrahydro-thiopyrano[4,3-d]pyrimidin-4-one (XAV939) in DMSO, stored at −20° C.
as §2
as §3, with “Transfer” for “Add 25 μL/well 1.5% DMSO/AB1c buffer in each compound well to the compound concentration at 74 μM in 8.8% DMSO/AB1c buffer or in the 2 μL DMSO CONTROL wells (BLANK, TOTAL and POSITIVE wells) in the compound plate. Transfer”, “min.” for “min. Read the assay plate immediately at excitation wavelength of 330 nm and emission wavelength of 615 and 665 nM in time resolved fluorescence mode.”

Counter-ions that a name gives are not always drawn.

T1 sequence (P09874 whole entry, species assumed): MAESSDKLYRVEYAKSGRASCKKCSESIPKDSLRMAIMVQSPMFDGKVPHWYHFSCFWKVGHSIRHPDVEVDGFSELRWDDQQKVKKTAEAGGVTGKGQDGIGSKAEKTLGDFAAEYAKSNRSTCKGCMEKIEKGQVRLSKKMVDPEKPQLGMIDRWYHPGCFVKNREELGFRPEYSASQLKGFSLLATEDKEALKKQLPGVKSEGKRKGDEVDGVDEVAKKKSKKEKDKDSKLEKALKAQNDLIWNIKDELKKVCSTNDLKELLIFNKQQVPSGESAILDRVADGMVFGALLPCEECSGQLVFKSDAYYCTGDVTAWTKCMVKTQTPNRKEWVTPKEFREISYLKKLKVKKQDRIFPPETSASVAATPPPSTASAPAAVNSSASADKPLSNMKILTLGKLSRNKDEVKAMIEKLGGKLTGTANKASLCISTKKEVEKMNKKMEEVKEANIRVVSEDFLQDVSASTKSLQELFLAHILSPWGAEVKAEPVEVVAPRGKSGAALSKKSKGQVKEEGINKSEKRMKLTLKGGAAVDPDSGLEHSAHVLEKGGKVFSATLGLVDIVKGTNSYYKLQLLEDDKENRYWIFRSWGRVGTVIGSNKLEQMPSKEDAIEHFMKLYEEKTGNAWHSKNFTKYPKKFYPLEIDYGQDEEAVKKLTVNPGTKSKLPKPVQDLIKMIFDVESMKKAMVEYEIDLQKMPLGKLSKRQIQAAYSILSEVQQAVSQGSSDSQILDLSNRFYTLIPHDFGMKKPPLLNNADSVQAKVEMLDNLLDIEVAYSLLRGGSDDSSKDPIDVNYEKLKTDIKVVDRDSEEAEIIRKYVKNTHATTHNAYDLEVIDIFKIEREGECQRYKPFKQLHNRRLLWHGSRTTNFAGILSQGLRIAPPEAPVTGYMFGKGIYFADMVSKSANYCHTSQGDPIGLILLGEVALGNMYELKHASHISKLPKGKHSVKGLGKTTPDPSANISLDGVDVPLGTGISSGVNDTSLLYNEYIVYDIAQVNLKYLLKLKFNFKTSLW
T3 sequence (Q9H2K2 934-1166): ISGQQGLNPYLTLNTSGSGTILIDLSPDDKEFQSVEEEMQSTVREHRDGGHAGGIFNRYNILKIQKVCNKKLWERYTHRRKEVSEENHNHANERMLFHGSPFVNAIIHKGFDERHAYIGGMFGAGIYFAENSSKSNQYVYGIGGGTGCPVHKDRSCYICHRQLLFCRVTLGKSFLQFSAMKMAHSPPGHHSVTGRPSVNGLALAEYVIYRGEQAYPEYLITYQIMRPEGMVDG

Broadly, the IC50 is the concentration needed to halve the response being measured. Low readings indicate greater potency, high ones weaker potency. Turning to `CC(C)(C)C1Cc2[nH]c(=O)c3ccncc3c2CO1` (racemic) [Compound I-34, rac-7-tert-Butyl-4a,5,7,8,9,10a-hexahydro-6-oxa-3,9-diaza-phenanthren-10-one], the values for the IC50 (in test [1]; at Tankyrase 1 (TNKS1); on tankyrase 2 (His6-TNKS2)) were 3470 nM, 84.9 nM and 183 nM, respectively.

As for `CC(C)C1Cc2[nH]c(=O)c3ccc(C(N)=O)cc3c2CO1` (racemic) [Compound I-23, rac-2-Isopropyl-9-oxo-1,4,9,10-tetrahydro-2H-3-oxa-10-aza-phenanthrene-6-carboxylic acid amide], the IC50 stood at 2030 nM in test [1], 88.6 nM at Tankyrase 1 (TNKS1) and 243 nM at tankyrase 2 (His6-TNKS2).

As to `Cc1cccc2c(=O)[nH]c3c(c12)COC(C(C)(C)O)C3` (racemic) [Compound I-64, rac-2-(1-Hydroxy-1-methyl-ethyl)-5-methyl-1,2,4,10-tetrahydro-3-oxa-10-aza-phenanthren-9-one], the IC50 in test [1] turned out to be 44.1 nM; on Tankyrase 1 (TNKS1), 32 nM; at tankyrase 2 (His6-TNKS2) it was 36.7 nM.

For the compound `Cn1ncc2c(=O)[nH]c3c(c21)COC(C(C)(C)C)C3` (racemic) [Compound I-42, rac-7-tert-Butyl-1-methyl-5,6,7,9-tetrahydro-1H-8-oxa-1,2,5-triaza-cyclopenta[a]naphthalen-4-one], the half-inhibitory concentration (IC50) in test [1] was 2100 nM; on Tankyrase 1 (TNKS1) it was 60.9 nM; at tankyrase 2 (His6-TNKS2), 87.7 nM.

Turning to `O=c1[nH]c2c(c3cnccc13)COC(C1CCCC1)C2` (racemic) [Compound I-31, rac-7-Cyclopentyl-5,7,8,9-tetrahydro-6-oxa-3,9-diaza-phenanthren-10-one], the IC50 in test [1] turned out to be 1790 nM; at Tankyrase 1 (TNKS1), 70.8 nM; at tankyrase 2 (His6-TNKS2), 89.1 nM.

Turning to `COC(=O)c1ccc2c(=O)[nH]c3c(c2c1)COC(C(C)C)C3` (racemic) [Compound I-19, rac-2-Isopropyl-9-oxo-1,4,9,10-tetrahydro-2H-3-oxa-10-aza-phenanthrene-6-carboxylic acid methyl ester], the half-maximal inhibitory concentration (IC50) worked out at 73.5 nM in test [1], 84.1 nM on Tankyrase 1 (TNKS1) and 386 nM on tankyrase 2 (His6-TNKS2).

Take `CC1(C(=O)N2CCC(C3Cc4[nH]c(=O)c5ccccc5c4CO3)C2)CC1` (stereo not drawn) [Compound I-45, 2-[1-(1-Methyl-cyclopropanecarbonyl)-pyrrolidin-3-yl]-1,2,4,10-tetrahydro-3-oxa-10-aza-phenanthren-9-one]: the IC50 turned out to be 78.3 nM in test [1], 64.7 nM on Tankyrase 1 (TNKS1) and 86.7 nM on tankyrase 2 (His6-TNKS2).

As for `CC(C)C1Cc2[nH]c(=O)c3sccc3c2CO1` (racemic) [Compound I-5, rac-7-Isopropyl-5,6,7,9-tetrahydro-8-oxa-3-thia-5-aza-cyclopenta[a]naphthalen-4-one], the half-maximal inhibitory concentration (IC50) in test [1] turned out to be 82.9 nM; on Tankyrase 1 (TNKS1), 70.3 nM; at tankyrase 2 (His6-TNKS2) it was 92.1 nM.

As for `Cc1cccc2c(=O)[nH]c3c(c12)COC(C1CCN(C(=O)C2(C)CC2)CC1)C3` (racemic) [Compound I-61, rac-5-Methyl-2-[1-(1-methyl-cyclopropanecarbonyl)-piperidin-4-yl]-1,2,4,10-tetrahydro-3-oxa-10-aza-phenanthren-9-one], the IC50 in test [1] was determined as 25.9 nM; at Tankyrase 1 (TNKS1), 17.5 nM; on tankyrase 2 (His6-TNKS2), 21 nM.

Take `O=c1[nH]c2c(c3ccccc13)COC(C1CCNC1)C2` (stereo not drawn) [Compound I-36, 2-Pyrrolidin-3-yl-1,2,4,10-tetrahydro-3-oxa-10-aza-phenanthren-9-one, hydrochloride]: the 50% inhibitory concentration (IC50) in test [1] stood at 27.7 nM; at Tankyrase 1 (TNKS1) it was 168 nM; at tankyrase 2 (His6-TNKS2) it was 246 nM.

For the compound `Cc1cccc2c(=O)[nH]c3c(c12)COC(C1CCN(C(=O)C2CC2)CC1)C3` (racemic) [Compound I-63, rac-2-(1-Cyclopropanecarbonyl-piperidin-4-yl)-5-methyl-1,2,4,10-tetrahydro-3-oxa-10-aza-phenanthren-9-one], the IC50 in test [1] came out at 52.6 nM; at Tankyrase 1 (TNKS1), 28.3 nM; at tankyrase 2 (His6-TNKS2), 26.9 nM.

Turning to `O=c1[nH]c2c(c3ccccc13)COC(C1CCOCC1)C2` (racemic) [Compound I-47, rac-2-(Tetrahydro-pyran-4-yl)-1,2,4,10-tetrahydro-3-oxa-10-aza-phenanthren-9-one], the IC50 in test [1] was found to be 63.6 nM; on Tankyrase 1 (TNKS1), 32.4 nM; at tankyrase 2 (His6-TNKS2) it was 36.8 nM.

As to `Cc1cncc2c(=O)[nH]c3c(c12)COC(C(C)(C)C)C3` (racemic) [Compound I-58, rac-7-tert-Butyl-4-methyl-5,7,8,9-tetrahydro-6-oxa-2,9-diaza-phenanthren-10-one], the half-inhibitory concentration (IC50) in test [1] is 328 nM; on Tankyrase 1 (TNKS1), 25.9 nM; on tankyrase 2 (His6-TNKS2), 25.7 nM.

`CC(C)C1Cc2[nH]c(=O)c3ccc(C4CC4)cc3c2CO1` (racemic) [Compound I-38, rac-6-Cyclopropyl-2-isopropyl-1,2,4,10-tetrahydro-3-oxa-10-aza-phenanthren-9-one]: the IC50 in test [1] was 18700 nM; on Tankyrase 1 (TNKS1) it was 91 nM; at tankyrase 2 (His6-TNKS2), 196 nM.

For the compound `Cc1cccc2c(=O)[nH]c3c(c12)COC(C1CCOCC1)C3` (racemic) [Compound I-60, rac-5-Methyl-2-(tetrahydro-pyran-4-yl)-1,2,4,10-tetrahydro-3-oxa-10-aza-phenanthren-9-one], the IC50 worked out at 79.7 nM in test [1], 24.1 nM at Tankyrase 1 (TNKS1) and 17.9 nM on tankyrase 2 (His6-TNKS2).

Take `CC(C)C1Cc2[nH]c(=O)c3cc(Cl)ccc3c2CO1` (racemic) [Compound I-6, rac-7-Chloro-2-isopropyl-1,2,4,10-tetrahydro-3-oxa-10-aza-phenanthren-9-one]: the IC50 amounted to 58.2 nM in test [1], 44 nM at Tankyrase 1 (TNKS1) and 73.4 nM on tankyrase 2 (His6-TNKS2).

With `CC(C)OC(=O)N1CCC(C2Cc3[nH]c(=O)c4ccccc4c3CO2)CC1` (racemic) [Compound I-32, rac-4-(9-Oxo-1,4,9,10-tetrahydro-2H-3-oxa-10-aza-phenanthren-2-yl)-piperidine-1-carboxylic acid isopropyl ester], the results for the half-inhibitory concentration (IC50) (in test [1]; at Tankyrase 1 (TNKS1); on tankyrase 2 (His6-TNKS2)) were 81.8 nM, 30.8 nM and 40.5 nM, respectively.

Take `O=c1[nH]c2c(c3ccccc13)CO[C@H](C1CCCC1)C2` (single isomer, unassigned) [Compound I-11]: the figures for the half-maximal inhibitory concentration (IC50) (in test [1]; on Tankyrase 1 (TNKS1); on tankyrase 2 (His6-TNKS2)) were 37.1 nM, 31.5 nM and 102 nM, respectively.
